Results reported in US9029518B2, “Method of extracting kaempferol-based antioxidants from Solenostemma arghel” (priority 2012, dated 2015).

Assays:
[1] = tested on: carrageenan-induced rat paw edema; test: Carrageenan-induced rat paw edema (anti-inflammatory); assay type: in vivo
Text: The total alcohol (ethanol) extract was given at doses of 0.25, 0.5 and 1 g/kg, respectively, and fractions were given in doses of 0.25 g/kg. […]

[2] = tested on: acetic acid-induced writhes in mice; test: Acetic acid-induced writhes in mice (peripheral analgesic activity); assay type: in vivo
[3] = tested on: response of mice to hot plate thermal stimulation; test: Hot plate test (central analgesic activity); assay type: in vivo; details: for Latency (mean latency time until licking or jumping): time 0 min, hot plate 55° C.; for central analgesic activity compared with methamizol 0.05 g/kg: total ethanol extract 0.25, 0.5 and 1 g/kg, fractions 0.25 g/kg, C1 and C2 0.1 g/kg, I.P.
Procedure: The total alcoholic extract was given at doses of 0.25, 0.5 and 1.0 g/kg, respectively, fractions were given at doses of 0.25 g/kg, and compounds were given at doses of 0.1 g/kg. The effect of the alcoholic extract, fractions and isolated compounds are shown in FIGS. 3A, 3B and 3C, respectively, and given below in Table 3.
FIGS. 3A, 3B and 3C graphically illustrate the mean latency time (in seconds) until licking or jumping. This was recorded with mice being placed in a glass beaker, which was placed on a hot plate, which was maintained at 55° C. Measurements were taken 20, 60 and 90 minutes, respectively, after intraperitoneal injection of fractions (0.25 g/kg) and the isolated compounds (0.1 g/kg) from Solenostemma arghel, compared with the control group and methamizol.
This effect started after 20 min. and persisted for 90 min. after I.P. administration of the extracts.

[4] = DPPH free radical scavenging activity; assay type: biochemical
Procedure: The antipyretic activity was estimated using Brewer's yeast-induced hyperpyrexia in rats. Both water and total alcohol extracts were separately given orally at doses of 0.25, 0.5 and 1.0 g/kg, respectively. The antioxidant activity was evaluated using 2,2-diphenyl-1-picrylhydrazyl (DPPH) free radical scavenging activity. A 0.05 ml sample of the test compound was added to a methanol solution of DPPH (100 μM 2.95 ml) dissolved in methanol. The compound was added at different concentrations of 2, 4, 6, 8 and 10 mg/ml, respectively, as well as for water, and the total ethanol extracts and fractions. Concentrations of 1, 2, 3, 4 and 5 mg/ml were used for C1 and C2. Equal amounts of methanol were added to the control. Absorbance was recorded at 517 nm at regular intervals of 15 s for 5 min. Ascorbic acid (100 μM) was used as a standard.
The results are shown in Table 4 below, and in FIGS. 4A and 4B.
With regard to antioxidant activity (in vitro), all extracts were tested at concentrations of 2, 4, 6, 8 and 10 mg/ml.

SMILES: O=c1c(O[C@@H]2O[C@H](CO)[C@@H](O)[C@H](O)[C@H]2O)c(-c2ccc(O[C@@H]3O[C@H](CO)[C@@H](O)[C@H](O)[C@H]3O)cc2)oc2cc(O)cc(O)c12 [C1, kaempferol-3, 4′-diglucoside]
- % inhibition of control ([1]; dose 0.1 g/kg oral, time 1 h): 59.06%
- % inhibition of control ([1]; dose 0.1 g/kg oral, time 2 h): 71.31%
- % inhibition of control ([1]; dose 0.1 g/kg oral, time 3 h): 53.93%
- % Protection of control ([2]; dose 0.1 g/kg oral): 59.02%
- Latency (mean latency time until licking or jumping) ([3]; dose 0.1 g/kg I.P.): 5.50 ± 0.85 s
- central analgesic activity compared with methamizol 0.05 g/kg [3]: significantly (P<0.05) greater than that of methamizol
- Radical scavenging activity (%) ± S.D. ([4]; concentration 1 mg/ml): 26.51 ± 1.01%
- Radical scavenging activity (%) ± S.D. ([4]; concentration 2 mg/ml): 37.94 ± 0.98%
- Radical scavenging activity (%) ± S.D. ([4]; concentration 3 mg/ml): 52.63 ± 0.99%
- Radical scavenging activity (%) ± S.D. ([4]; concentration 4 mg/ml): 67.72 ± 1.12%
- Radical scavenging activity (%) ± S.D. ([4]; concentration 5 mg/ml): 83.40%

SMILES: C[C@H]1O[C@H](OC[C@H]2O[C@@H](Oc3c(-c4ccc(O)cc4)oc4cc(O)cc(O)c4c3=O)[C@H](O)[C@@H](O)[C@@H]2O)[C@@H](O)[C@@H](O)[C@@H]1O [C2, kaempferol-3-rutinoside]
- % inhibition of control ([1]; dose 0.1 g/kg oral, time 1 h): 62.50%
- % inhibition of control ([1]; dose 0.1 g/kg oral, time 2 h): 70.02%
- % inhibition of control ([1]; dose 0.1 g/kg oral, time 3 h): 53.60%
- % Protection of control ([2]; dose 0.1 g/kg oral): 68.90%
- Latency (mean latency time until licking or jumping) ([3]; dose 0.1 g/kg I.P.): 5.80 ± 0.79 s
- central analgesic activity compared with methamizol 0.05 g/kg [3]: significantly (P<0.05) greater than that of methamizol
- Radical scavenging activity (%) ± S.D. ([4]; concentration 1 mg/ml): 30.28 ± 1.10%
- Radical scavenging activity (%) ± S.D. ([4]; concentration 2 mg/ml): 39.64 ± 0.88%
- Radical scavenging activity (%) ± S.D. ([4]; concentration 3 mg/ml): 65.30 ± 0.98%
- Radical scavenging activity (%) ± S.D. ([4]; concentration 4 mg/ml): 70.12 ± 1.01%
- Radical scavenging activity (%) ± S.D. ([4]; concentration 5 mg/ml): 86.50%

SMILES: O=C(O)Cc1ccccc1Nc1c(Cl)cccc1Cl [Diclofenac sodium, diclofenac sodium, reference compound]
- % inhibition of control ([1]; dose 0.03 g/kg, time 0 h (so in the source)): 30.24%
- % inhibition of control ([1]; dose 0.03 g/kg, time 2 h): 48.42%
- % inhibition of control ([1]; dose 0.03 g/kg, time 3 h): 54.69%

SMILES: Cc1c(N(C)CS(=O)(=O)[O-])c(=O)n(-c2ccccc2)n1C.[Na+] [Methamizol, methamizol, reference compound]
- % Protection of control ([2]; dose 0.05 g/kg): 52.32%
- Latency (mean latency time until licking or jumping) ([3]; dose 0.05 g/kg): 5.26 ± 0.94 s

SMILES: O=C1O[C@H]([C@@H](O)CO)C(O)=C1O [ascorbic acid, reference compound]
- scavenging activity towards DPPH radicals ([4]; concentration 100 μM (standard)): 87.8%
